Read-outs that look alike come from different tables or passages of the source.
Experiments:
[1] = target: T1, Estrogen Receptor ERα (Homo sapiens, UniProt P03372); assay: cell-based; conditions: for EC10, ERα (M): 10% of maximum effect of E2; for Efficacy % / EC10 / REPBPA: This Study; for EC10: ERα; for REPBPA: relative estrogenic potency vs BPA; for EC10, ERα: effect; for log(1/EC10) ERα: input of the ToxPi score, values up to 1.00; for SR-ScoreERα: SR-Score, sigma k=1, x=5; for Specificity ratio (SRbaseline) SRERα: against baseline cytotoxicity; for Specificity ratio (SRcytotoxicity) SRERα: against experimental cytotoxicity; for Relative effect potency REPERα: relative to BPA
T1 sequence (P03372 311-547 limits assumed): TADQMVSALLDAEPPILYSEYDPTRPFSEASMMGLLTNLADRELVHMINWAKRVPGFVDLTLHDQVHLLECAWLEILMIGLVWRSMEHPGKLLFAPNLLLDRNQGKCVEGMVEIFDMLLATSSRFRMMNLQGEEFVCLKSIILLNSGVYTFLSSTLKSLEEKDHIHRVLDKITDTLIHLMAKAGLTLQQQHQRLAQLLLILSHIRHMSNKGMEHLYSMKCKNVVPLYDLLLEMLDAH
Outline: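 ERα-UAS-bla GripTite and PPARγ-UAS-bla β-lactamase reporter cells were seeded and held 24 h at 37 °C, 5% CO₂ before dosing. EC10 values used only concentrations below the IC10 from IncuCyte confluency. Emax% is the log-logistic curve maximum relative to the reference chemical's maximum.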

[2] = target: T1, Estrogen Receptor ERα; assay: aCYP oxidation followed by ERα-UAS-bla GripTite assay (TK-Ratio of effect); type: cell-based; conditions: for EC10, after oxidation / EC10, before oxidation: ERα; for EC10, after oxidation: after abiotic CYP catalyst; for TKERα: TKERα-Ratio
Method: Cell culture conditions and bioassay protocols including response detection are provided in Text S2.1–2.4 and Table S3. − Cell viability was determined from cell confluency using an IncuCyte S3 Live-Cell Analysis System (Sartorius AG, Essen, Germany) before and after exposure, except for SH-SY5Y cells (live–dead staining with Nuclear Green LcS1 and propidium iodide, Abcam, UK). For metabolic activation experiments, cell viability was assessed using the ToxBLAzer DualScreen Kit (Thermo Fisher Scientific) to capture the remaining toxicity in ERα-UAS-bla GripTite after treatment with the aCYP catalyst (details in Text S2.4). […]
The TK-Ratio method was used to evaluate the impact of abiotic CYP oxidation on the potency of tested compounds. […]
For experiments with the preceding aCYP activation, ERα cell viability was additionally calculated from the readout of the ToxBLAzer reagent. The ToxBLAzer assay was conducted following the manufacturer's instructions (Thermo Fisher, Waltham, MA, U.S.).13 Fluorescence intensity was recorded at the start of the assay ( Fwavelength(0h)) and after a 2-hour incubation at […]
Cell viability was assessed based on the red fluorescence signal at 665 nm, applying eq. S11 for normalization.
Cell viability = F665nm(2h, sample)-F665nm(0h, average cell-free) (S11) F665nm(2h, average unexposed)-F665nm(0h, average cell-free) […]
the specific endpoint to avoid artifacts from cytotoxicity burst. 15
S2.5: Concentration-response curves (CRCs)
To avoid bias from cytotoxicity burst at higher concentrations, all concentrations exceeding the IC10 for cytotoxicity were excluded in the CRC modeling of effects but otherwise cytotoxicity and effects were fitted with the same model equations (response stands for cytotoxicity or effect). For ERα, AhR, ARE and PPARγ preferably a linear model was fitted to the linear portion of CRC up to maximum 30% effect (eq. S12),16 but in some cases it was necessary to choose a sigmoidal log-concentration-response model, specifically a log-logistic model (eq. S13), to derive effect concentrations and cytotoxicity. For mitochondrial toxicity and neurotoxicity, the […]
are not reporter gene assays. Common practice when using log-logistic models, e.g., the model implemented in tcpl package in R,17, 18 is that the minima and maxima are also fitted and only median effect concentrations AC50 are derived. […]
concentrations (EC10) for both linear and log-sigmoidal CRCs to allow absolute comparisons at the same effect level and for TR and SR -analysis. This was done using the AutomatedBioassayScreening19 published by Braun et al.,20 which also included an algorithm to choose the best model between eq. S12 and eq. S13.
Response (%) = slope × C (S12) […]
logEC =logEC − 1 ∙log (max−min − 100%) (S14)

[3] = Bioassay ERα, dosing range high, in M
[4] = Bioassay ERα, dosing range high, linear model fit, in M
[5] = Bioassay ERα, dosing range high, log-logistic model fit
[6] = Bioassay ERα, dosing range all, in M
[7] = Bioassay ERα, dosing range all, linear model fit, in M
[8] = Bioassay ERα, dosing range all, log-logistic model fit

SMILES | EC10, ERα (M) [1] | EC10, linear transformed [1, 3] | EC10, linear [1, 4] | logEC10 [1, 5] | Efficacy % [1] | EC10 ([1]; in M) | REPBPA [1] | EC10, ERα [1] | log(1/EC10) ERα [1] | EC10, after oxidation ([2]; Table S10, in M) | EC10, before oxidation ([2]; Table S10, in M) | TKERα ([2]; Table S10) | EC10, linear transformed [1, 6] | EC10, linear [1, 7] | logEC10 [1, 8] | SR-ScoreERα [1] | Specificity ratio (SRbaseline) SRERα [1] | Specificity ratio (SRcytotoxicity) SRERα [1] | Emax ([1]; read-out: Emax%ERα) | Relative effect potency REPERα [1] | further results
O=S(=O)(c1ccc(O)cc1)c1ccc(O)cc1 [BPS, 4,4'-Sulfonyldiphenol] | 1.43 × 10^–6 M | 1.15E-06 | 1.20E-06 | -5.97 | 65.69% | 1.43E-06 | 2.59E-01 | 1430 nM | 0.75 | 1.48E-06 | 1.65E-06 | 1.115 |  |  |  |  |  |  |  |  | EC10, linear transformed ([1]; ERα bioassay, dosing range low, in M): 1.65E-06; EC10, linear ([1]; ERα bioassay, dosing range low, linear model, in M): 1.43E-06; logEC10 ([1]; ERα bioassay, dosing range low, log-logistic model): -5.76; Emax ([1]; read-out: Emax%ERα, maximum efficacy relative to E2): 66%
C=CCOc1ccc(S(=O)(=O)c2ccc(O)cc2)cc1 [BPS-MAE, 4-[[4-(Allyloxy)phenyl]sulfonyl]phenol] | 1.41 × 10^–5 M |  |  |  |  | 1.41E-05 | 2.63E-02 | 14100 nM | 0.62 | 1.28E-05 | 1.26E-05 | 0.9842 | 1.26E-05 | 1.41E-05 | -4.90 | 1.00 |  |  |  |  | 
Oc1ccc(Sc2ccc(O)cc2)cc1 [BPT, 4,4'-Thiodiphenol] | 7.27 × 10^–7 M |  |  |  |  | 7.27E-07 | 5.09E-01 | 727 nM | 0.78 | 1.15E-06 | 2.87E-07 | 0.2502 | 2.87E-07 | 7.27E-07 | -6.54 | 1.00 |  |  |  |  | EC10, after oxidation ([2]; Table S11, in M): 2.70E-06; EC10, before oxidation ([2]; Table S11, in M): 2.28E-06; TKERα ([2]; Table S11): 0.85
Cc1ccc(S(=O)(=O)NC(=O)Nc2ccc(Cc3ccc(NC(=O)NS(=O)(=O)c4ccc(C)cc4)cc3)cc2)cc1 [BTUM, 4,4'-Bis(p-tolylsulfonylureido)diphenylmethane] |  |  |  |  |  |  |  |  |  |  |  |  |  |  | no effect |  |  |  |  |  | EC10, linear ([1]; Bioassay ERα, dosing range all, linear model fit): no effect; ERα activation ([1]; at noncytotoxic concentrations): did not activate ERα at noncytotoxic concentrations; EC10, before oxidation ([2]; Table S10): no effect; EC10, after oxidation ([2]; Table S10): no effect; outcome of aCYP experiments ([2]; both experimental setups): inconclusive results
COC(=O)C(c1ccc(O)cc1)c1ccc(O)cc1 [Bz, Methyl bis(4-hydroxyphenyl)acetate] | 1.06 × 10^–6 M | 1.23E-08 | 7.84E-07 | -6.83 | 32.40% | 1.06E-06 | 3.49E-01 | 1060 nM | 0.76 | 1.36E-06 | 9.90E-07 | 0.7263 |  |  |  | 1.00 | 245.73 | 956.87 | 32% | 0.35 | EC10, linear transformed ([1]; Bioassay ERα, dosing range low, in M): 9.90E-07; EC10, linear ([1]; Bioassay ERα, dosing range low, linear model fit, in M): 1.06E-06; logEC10 ([1]; Bioassay ERα, dosing range low, log-logistic model fit): -6.00; SRcytotoxicity (ERα) ([1]; IC10/EC10): 957
O=C(OCc1ccccc1)c1ccc(O)cc1 [BzPB, Benzyl 4-hydroxybenzoate] | 3.02 × 10^–6 M |  |  |  | 53.46% | 3.02E-06 | 1.23E-01 | 3020 nM | 0.70 | 4.95E-06 | 3.07E-06 | 0.6192 | 3.07E-06 | 1.96E-06 | -5.52 | 1.00 | 5.49 | 13.93 | 53% | 0.12 | 

Source: publication PMC12392461, “Beyond Estrogenicity: A Comparative Assessment of Bisphenol A and Its Alternatives in In Vitro Assays Questions Safety of Replacements” (Environmental Science & Technology, 2025)
